{
  "source": "PubChem BioAssay AID1963837",
  "about": "(Molecular Pharmacology Branch, DTP, NCI, 2024);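 for viability, T/C: spheroids exposed to drugs for seven days before readout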",
  "test_system": "843126-344-R-J1-PDC complex spheroid viability",
  "assay": "Anticancer human tumor 843126-344-R-J1-PDC patient-derived melanoma cell line growth inhibition [POLQ]",
  "conditions": "for IC50: curve of first compound; for viability, T/C: stronger effect = lower value",
  "experimental": "Multicellular complex tumor spheroid response to Polymerase (POL) inhibitors (novobiocin, ART-558, RP6685) in combination with a variety of drugs and investigational agents in selected tumor cell lines\nThe POL inhibitors (novobiocin, ART-558, and RP6685) were evaluated both individually and in combination with standard of care and investigational anticancer small molecules within a complex spheroid model of solid tumors. . Complex spheroids include a stromal component modeled by human endothelial cells (HUVEC) and fibroblasts modeled by human mesenchymal stem cells (MSCs). The concentration ranges selected for each drug and investigational agent were based upon clinically achievable concentrations if the clinical Cmax of the agent was known.\nCompounds. The drugs and investigational agents: novobiocin (NSC847541), ART-558 (NSC835418), RP-6685 (NSC848927), peposertib (NSC802822), ceralasertib (NSC780249), elimusertib (NSC800525), camonsertib (NSC841442), AZD-1390 (NSC803789), olaparib (NSC753686), talazoparib (NSC767125), rucaparib (NSC756644), sotorasib (NSC818433), MRTX-1133 (NSC836407), SN-38 (NSC673596), topotecan (NSC609699), epotoside (NSC141540), doxorubicin (NSC123127), gemcitabine (NSC613327), 5-fluorouracil (NSC19893), paclitaxel (NSC125973), vemurafenib (NSC761431), MSA-2 (NSC828583), SN-011 (NSC837082), adavosertib (NSC754352), prexasertib (NSC758257), carboplatin (NSC241240) and oxaliplatin (NSC266046), were obtained from the National Cancer Institute (NCI) Developmental Therapeutics Program Chemical Repository (21). The FDA-approved anticancer drug set is available from the Developmental Therapeutics Program at https://dtp.cancer.gov/organization/dscb/obtaining/. […] The stock solutions were prepared in dimethyl sulfoxide (DMSO, Sigma-Aldrich, St. Louis, MO, cat. D2650), except for the platinum compounds which were prepared in saline (Quality Biological, Gaithersburg, MD, cat. 114-055-101), at 800-fold the tested concentration and stored at -70 degrees C prior to their use. All drugs and investigational agents were tested over a range starting from a high concentration at or near the clinical Cmax and decreasing in half-log increments. If the clinical Cmax for an agent had not been determined, the highest concentration tested was 10 microM, except for SN-38, which was tested at a high concentration of 1 microM.\nCell Culture. All cells were maintained in an incubator at 37 degrees C and 5% CO2 with 95% humidity. The PDC lines were cultured according to standard operating procedures established by the NCI PDMR (https://pdmr.cancer.gov). Table 3 of the manuscript, lists the cell lines along with the number of the three cell types plated to form the mct-spheroids and media for tumor cell growth. After thawing, all PDC lines, except 997537-175-T-J1-PDC and 415267-285-R-J2-PDC, were cultured in Matrigel-coated flasks prepared with a working solution of 1X Ham's F-12 nutrient mix, without supplementation (Thermo Fisher Scientific, cat. 11765054), 100 U/mL penicillin-streptomycin (Thermo Fisher Scientific, cat. 15140122), and 2.5% Matrigel (Corning Inc., Corning, NY, cat. 354248) for the first three passages. The two PDC lines 997537-175-T-J1-PDC and 415267-285-R-J2-PDC were cultured on uncoated flasks. The 857933-349-R-J2-PDC line was cultured in 6C/Colon 1B media containing advanced DMEM/F-12 (Thermo Fisher Scientific, cat. 12634028), 10 mM HEPES (Thermo Fisher Scientific, cat. 15630080), 1X GlutaMAX supplement (Thermo Fisher Scientific, cat. 35050061), 0.1 mg/mL primocin (InvivoGen, San Diego, CA, cat. ant-pm-2), 10% defined fetal bovine serum, heat inactivated (HyClone Laboratories Inc., Logan, UT, cat. SH30070.03HI), 50% L-WRN conditioned media (ATCC, cat. CRL-3276), 1.25 mM N-Acetyl-L-cysteine (Sigma-Aldrich, cat. A9165), 10 mM nicotinamide (Sigma-Aldrich, cat. N0636), 1X B-27 supplement (Thermo Fisher Scientific, cat. 17504044), 1X N-2 supplement (Thermo Fisher Scientific, cat. […]",
  "data": [
    {"smiles": "Nc1ccn(C2OC(CO)C(O)C2(F)F)c(=O)n1", "note": "(configuration not stated) + COC1C(OC(N)=O)C(O)C(Oc2ccc3c(O)c(NC(=O)c4ccc(O)c(CC=C(C)C)c4)c(=O)oc3c2C)OC1(C)C", "values": [
      {"measurement": "IC50", "setting": "second compound 0.0316 µM", "value": "< 31.6", "unit": "nM"},
      {"measurement": "IC50", "setting": "second compound 0.1 µM", "value": "< 31.6", "unit": "nM"},
      {"measurement": "IC50", "setting": "second compound 0.316 µM", "value": "< 31.6", "unit": "nM"},
      {"measurement": "IC50", "setting": "second compound 1 µM", "value": "< 31.6", "unit": "nM"},
      {"measurement": "IC50", "setting": "second compound 3.16 µM", "value": "< 31.6", "unit": "nM"},
      {"measurement": "IC50", "setting": "second compound 10 µM", "value": "< 31.6", "unit": "nM"},
      {"measurement": "viability, T/C", "setting": "second compound 0.0316 µM, first compound 0.0316 µM", "value": 33.5, "unit": "%"},
      {"measurement": "viability, T/C", "setting": "second compound 0.0316 µM, first compound 0.1 µM", "value": 34.9, "unit": "%"},
      {"measurement": "viability, T/C", "setting": "second compound 0.0316 µM, first compound 0.316 µM", "value": 36.8, "unit": "%"},
      {"measurement": "viability, T/C", "setting": "second compound 0.0316 µM, first compound 1 µM", "value": 36.1, "unit": "%"},
      {"measurement": "viability, T/C", "setting": "second compound 0.0316 µM, first compound 3.16 µM", "value": 41.7, "unit": "%"},
      {"measurement": "viability, T/C", "setting": "second compound 0.0316 µM, first compound 10 µM", "value": 34.7, "unit": "%"},
      {"measurement": "viability, T/C", "setting": "second compound 0.1 µM, first compound 0.0316 µM", "value": 41.3, "unit": "%"},
      {"measurement": "viability, T/C", "setting": "second compound 0.1 µM, first compound 0.1 µM", "value": 36.5, "unit": "%"},
      {"measurement": "viability, T/C", "setting": "second compound 0.1 µM, first compound 0.316 µM", "value": 34.9, "unit": "%"},
      {"measurement": "viability, T/C", "setting": "second compound 0.1 µM, first compound 1 µM", "value": 37.8, "unit": "%"},
      {"measurement": "viability, T/C", "setting": "second compound 0.1 µM, first compound 3.16 µM", "value": 37.3, "unit": "%"},
      {"measurement": "viability, T/C", "setting": "second compound 0.1 µM, first compound 10 µM", "value": 33.7, "unit": "%"},
      {"measurement": "viability, T/C", "setting": "second compound 0.316 µM, first compound 0.0316 µM", "value": 38.6, "unit": "%"},
      {"measurement": "viability, T/C", "setting": "second compound 0.316 µM, first compound 0.1 µM", "value": 36.4, "unit": "%"},
      {"measurement": "viability, T/C", "setting": "second compound 0.316 µM, first compound 0.316 µM", "value": 39.4, "unit": "%"},
      {"measurement": "viability, T/C", "setting": "second compound 0.316 µM, first compound 1 µM", "value": 32.9, "unit": "%"},
      {"measurement": "viability, T/C", "setting": "second compound 0.316 µM, first compound 3.16 µM", "value": 36.9, "unit": "%"},
      {"measurement": "viability, T/C", "setting": "second compound 0.316 µM, first compound 10 µM", "value": 33.4, "unit": "%"},
      {"measurement": "viability, T/C", "setting": "second compound 1 µM, first compound 0.0316 µM", "value": 38.9, "unit": "%"},
      {"measurement": "viability, T/C", "setting": "second compound 1 µM, first compound 0.1 µM", "value": 36, "unit": "%"},
      {"measurement": "viability, T/C", "setting": "second compound 1 µM, first compound 0.316 µM", "value": 39.3, "unit": "%"},
      {"measurement": "viability, T/C", "setting": "second compound 1 µM, first compound 1 µM", "value": 31.7, "unit": "%"},
      {"measurement": "viability, T/C", "setting": "second compound 1 µM, first compound 3.16 µM", "value": 40, "unit": "%"},
      {"measurement": "viability, T/C", "setting": "second compound 1 µM, first compound 10 µM", "value": 35.7, "unit": "%"},
      {"measurement": "viability, T/C", "setting": "second compound 3.16 µM, first compound 0.0316 µM", "value": 43.5, "unit": "%"},
      {"measurement": "viability, T/C", "setting": "second compound 3.16 µM, first compound 0.1 µM", "value": 34.6, "unit": "%"},
      {"measurement": "viability, T/C", "setting": "second compound 3.16 µM, first compound 0.316 µM", "value": 38, "unit": "%"},
      {"measurement": "viability, T/C", "setting": "second compound 3.16 µM, first compound 1 µM", "value": 30.8, "unit": "%"},
      {"measurement": "viability, T/C", "setting": "second compound 3.16 µM, first compound 3.16 µM", "value": 39.5, "unit": "%"},
      {"measurement": "viability, T/C", "setting": "second compound 3.16 µM, first compound 10 µM", "value": 31.2, "unit": "%"},
      {"measurement": "viability, T/C", "setting": "second compound 10 µM, first compound 0.0316 µM", "value": 38.4, "unit": "%"},
      {"measurement": "viability, T/C", "setting": "second compound 10 µM, first compound 0.1 µM", "value": 37.8, "unit": "%"},
      {"measurement": "viability, T/C", "setting": "second compound 10 µM, first compound 0.316 µM", "value": 38, "unit": "%"},
      {"measurement": "viability, T/C", "setting": "second compound 10 µM, first compound 1 µM", "value": 32.8, "unit": "%"},
      {"measurement": "viability, T/C", "setting": "second compound 10 µM, first compound 3.16 µM", "value": 32, "unit": "%"},
      {"measurement": "viability, T/C", "setting": "second compound 10 µM, first compound 10 µM", "value": 32, "unit": "%"}
    ]}
  ]
}
